In patent US20250275968A1, “INHIBITORS OF TAU PROTEINS” (DEUTSCHES ZENTRUM FÜR NEURODEGENERATIVE ERKRANKUNGEN E.V., priority 2022, published 2025):
Structures can show the parent of a compound that is named as a salt.

Legend:
[1] = molecular target: T1, 2N4R tau (Homo sapiens, UniProt P10636); assay: In vitro seeded aggregation/fibrillization assay of 2N4R tau (ThT fluorescence); format: biochemical; conditions: for In vitro seeded aggregation/fibrillization of full-length tau (ThT fluorescence curves): 2N4R tau, various formulations
T1 construct: Full-length 2N4R tau was incubated with Osimertinib mesylate
Protocol: Aggregation of 2N4R Tau was performed using a previously published co-factor-free aggregation protocol, with a few modifications (Reference: Chakraborty, P. et al. Co-factor-free aggregation of tau into seeding-competent RNA-sequestering amyloid fibrils. Nat. Commun. 12, 4231 (2021)). Aggregation experiments used the Tau protein stock prepared in 25 mM HEPES pH 7.4, 1 mM TCEP. Stocks of compounds were prepared in aggregation buffer (25 mM HEPES, 10 mM KCl, 5 mM MgCl2, pH 7.2) or in DMSO (10 mM compound).
To prepare the Tau fibril seeds by de novo aggregation, 2N4R Tau at a monomer concentration of 25 μM was diluted in aggregation buffer. The working concentration of TCEP in the aggregation mixture was <25 μM after dilution of the stock. To this mixture, Thioflavin T (ThT) was added to a final concentration of 50 μM. A total volume of 100 μL of the Tau-ThT mixture was incubated in a well of a 96-well microplate (Greiner Bio-one), in the presence of two polytetrafluoroethylene beads. The microplate was subjected to a program implemented in a Tecan Spark plate reader that involved incubating at 37° C., with intervals of double orbital shaking and ThT fluorescence emission measurement. The excitation wavelength for ThT was set as 430 nm and the emission wavelength was 485 nm. Details of this plate reader program were published previously (Reference: Chakraborty, P. et al. Co-factor-free aggregation of tau into seeding-competent RNA-sequestering amyloid fibrils. Nat. Commun. 12, 4231 (2021)). […] The fibril-containing mixture collected from the microplate served as a seeding mixture for the subsequent aggregation assays.
Seeded aggregation assays were performed as described above but with 1.0% of the well volume occupied by the seeding mixture sonicated for 1 minute. The assays were performed in the presence and absence of compounds, and working concentrations ranged from 0-250 μM compound.
Analyses of the fluorescence curves were performed using Graphpad PRISM version 8. Fluorescence data were fit to a sigmoid function. The number of hours corresponding to half-maximal ThT Fluorescence™ as well as the span of fluorescence intensity (Span) were determined for each sigmoid curve. Statistically significant differences were determined by one-way ANOVA analysis with Dunnett's multiple comparison test or unpaired t-test.

[2] = molecular target: T2, 15N-labeled 2N4R tau (Homo sapiens, UniProt P10636); assay: SOFAST-HMQC NMR binding to monomeric tau; conditions: for binding to tau (NMR spectroscopy): 18 μM tau, 50 mM sodium phosphate pH 6.8, 16 h at 37° C., spectra at 5° C.
T2 construct: Full-length 2N4R tau was incubated with Osimertinib mesylate
Description: (A) Overlaid spectra of 2N4R tau with (black) and without (grey) a 100-fold molar excess of Osimertinib mesylate.
To obtain residue-specific information about the interaction between Tau and the compounds, ^1H-^15N correlation spectra of 2N4R Tau were monitored over the course of a titration with increasing amounts of compound. The ^1H-^15N SOFAST-HMQC (Reference: Schanda, P., Kupce, E. & Brutscher, B. SOFAST-HMQC experiments for recording two-dimensional heteronuclear correlation spectra of proteins within a few seconds. J. Biomol. NMR 33, 199-211 (2005)) spectra of [U-^15N]-Tau were acquired at 5° C. on a Bruker 800 MHz spectrometer equipped with a triple-resonance cryoprobe. Tau samples (18-25 μM) were prepared in NMR buffer containing 10% (v/v) D2O, and with compound concentrations that corresponded to Tau:compound mole ratios of 1:10 and 1:100. All NMR samples were incubated overnight (˜16 h) at 37° C. prior to spectral acquisition. Tau amide assignments were taken from a previous study (Reference: Mukrasch, M. et al. Structural polymorphism of 441-residue tau at single residue resolution. PLoS Biol. 7, e34 (2009)). However, because previous assignments were obtained using a Tau sample prepared in the presence of reducing agents, some amide resonances belonging to the repeat region of Tau (close to C291 and C322) were not unambiguously transferred to the SOFAST-HMQC spectra acquired under oxidizing conditions. Therefore, to obtain nearly complete backbone assignments in the repeat region, 3D HNCA, 3D HNCOCA, and 3D CBCACONH spectra were recorded for a [U-^13C,^15N]-4R Tau (K18 construct) sample prepared under the same buffer condition. The weighted, normalized chemical shift perturbations (CSP) were calculated as CSP=√[0.5 [(Δδ H)^2+(Δδ N)^2/25]. NMR signal intensity ratios, I/I0 (where I is the peak intensity of Tau amide backbone resonances in the presence of the compounds, and I0 is the peak intensity in the absence of the compounds), were calculated for each titration point.

[3] = molecular target: T3, 2N4R Tau fibrils (Homo sapiens, UniProt P10636); assay: Saturation transfer difference (STD) NMR with tau fibrils; format: binding; conditions: 48-fold excess of compound, 100 mM NaCl, 2.5% (v/v) DMSO, pH 6.8, 37° C.
T3 construct: Full-length 2N4R tau was incubated with Osimertinib mesylate
Protocol: 2N4R Tau fibrils were prepared using the aggregation procedure described in the section in vitro assay 1 without Thioflavin T. The mole ratio of “free” compound to fibrils was 48:1 (corresponding to a total compound concentration of 250 μM and a total fibril concentration of 5 μM Tau). The NMR samples were prepared in 50 mM sodium phosphate with 100 mM NaCl and 2.5% (v/v) DMSO at pH 6.8. The spectra were recorded at 37° C. using a Bruker 700 MHz spectrometer equipped with a triple resonance cryoprobe. 1D ^1H-NMR STD spectra were acquired in an interleaved manner, alternating between off-resonance irradiation at 60 ppm and on-resonance irradiation at −2 ppm.

[4] = 2N4R tau^wt, mole ratios 1:3 and 1:10

T1 sequence (P10636 1-441 isoform P10636-8): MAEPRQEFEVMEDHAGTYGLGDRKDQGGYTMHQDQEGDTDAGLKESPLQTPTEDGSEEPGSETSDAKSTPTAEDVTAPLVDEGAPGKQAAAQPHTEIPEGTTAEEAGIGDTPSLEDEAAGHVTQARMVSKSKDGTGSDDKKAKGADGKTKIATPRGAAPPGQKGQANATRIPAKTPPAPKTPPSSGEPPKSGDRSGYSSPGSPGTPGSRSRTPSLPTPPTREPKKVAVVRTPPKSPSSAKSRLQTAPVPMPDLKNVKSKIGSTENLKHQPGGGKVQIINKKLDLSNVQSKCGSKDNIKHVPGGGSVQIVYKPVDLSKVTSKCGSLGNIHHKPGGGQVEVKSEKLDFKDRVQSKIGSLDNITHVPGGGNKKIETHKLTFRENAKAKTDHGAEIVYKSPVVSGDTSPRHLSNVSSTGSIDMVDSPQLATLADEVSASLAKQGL
T2 sequence (P10636 1-441 isoform P10636-8): as above
T3 sequence (P10636 1-441 isoform P10636-8): as above

Structure (SMILES) | In vitro seeded aggregation/fibrillization of full-length tau (ThT fluorescence curves) [1] | binding to tau (NMR spectroscopy) [2] | NMR signal intensity ratio I/I0 ([2]; 16 h incubation at 37° C.) | STD effect with tau fibrils (fibril binding epitopes) [3] | normalized Span of ThT fluorescence [1, 4] | normalized Tm (midpoint of aggregation curve) [1, 4] | inhibitory activity towards tau aggregation ([1]; 2.5% (v/v) DMSO)
C=CC(=O)Nc1cc(Nc2nccc(-c3c[nH]c4ccccc34)n2)c(OC)cc1N(C)CCN(C)C [Compound 3, N-[2-[[2-(dimethylamino)ethyl]methylamino]-5-[[4-(1H-indol-3-yl)-2-pyrimidinyl]amino]-4-methoxyphenyl]-2-Propenamide] | inhibited in a dose-dependent manner | reveals binding | above 1 | Protons showing STD effects | – | – | –
C=CC(=O)Nc1cc(Nc2nccc(-c3cn(C)c4ccccc34)n2)c(OC)cc1N(C)CCN(C)C [Osimertinib mesylate, N-[2-(2-Dimethylaminoethylmethylamino)-4-methoxy-5-[[4-(1-methylindol-3-yl)pyrimidin-2-yl]amino]phenyl]prop-2-enamide Mesylate Salt] | – | reveals binding | – | – | statistically lower normalized Span values | do not show a clear dose-dependence | –
C=CC(=O)Nc1cc(Nc2nccc(-c3cn(C)c4ccccc34)n2)c(OC)cc1N(C)CCN(C)C [Osimertinib, N-[2-(2-Dimethylaminoethylmethylamino)-4-methoxy-5-[[4-(1-methylindol-3-yl)pyrimidin-2-yl]amino]phenyl]prop-2-enamide] | inhibited in a dose-dependent manner | – | – | Protons showing STD effects | – | – | strong inhibitory activity
